Data published in ChEMBL document CHEMBL3046454, “Structureactivity relationship study of thiosemicarbazones on an African trypanosome: Trypanosoma brucei brucei” (Med Chem Res, 2013).

Tests used:
[1] = tested on: Trypanosoma brucei brucei; experiment: Trypanocidal activity against Trypanosoma brucei brucei 427 bloodstream form assessed as inhibition of parasite proliferation after 72 hr by Lilit Alamar Blue method; type: functional, organism-based
[2] = Selectivity index, ratio of LC50 for Artemia salina larvae to IC50 for Trypanosoma brucei brucei 427 bloodstream form
[3] = Toxicity against Artemia salina (brine shrimp) larvae assessed as mortality after 24 hr; type: organism-based; conditions: in vivo
[4] = Trypanosoma brucei, 427, 72 h, read-out: IC50

| SMILES | IC50 [1, 4] [µM] | also measured |
| --- | --- | --- |
| Cc1ccc(/C=N\NC(N)=S)cc1 | 124 |  |
| NC(=S)NN=C(c1ccccc1)c1ccccc1 [BENZOPHENONE-THIOSEMICARBAZONE] | 68.3 |  |
| CN(C)c1ccc(/C=C/C=N\NC(N)=S)cc1 | 17.7 |  |
| CC/C(=N/NC(N)=S)c1ccc(OC)cc1 | 132 |  |
| NC(S)=NN=C(Cc1ccccc1)Cc1ccccc1 | 147 |  |
| COc1ccc(/C(C)=N\NC(N)=S)cc1 | 91.1 |  |
| C/C(=N/NC(=S)Nc1ccccc1)c1ccc2ccccc2c1 |  | IC50 [1]: ND(Insoluble) |
| C/C(=N/N=C(\N)S)c1ccc(Cl)cc1 [P-CHLOROPHENYL(METHYL)THIOSEMICARBAZONE] | 11.1 |  |
| C=C(C)C1CC=C(C)/C(=N/NC(N)=S)C1 (stereo not drawn) [CARVONE-THIOSEMICARBAZONE] | 39.7 |  |
| C/C(=N/NC(=S)Nc1ccccc1)c1ccc(Cl)cc1 | 3.97 | Ratio LC50/IC50 [2]: 110; LC50 at 24 h [3]: 438 µM |
| C/C(=N/NC(N)=S)c1ccc2ccccc2c1 [ACETONAPHTHONE-THIOSEMICARBAZONE] | 9.62 | Ratio LC50/IC50 [2]: 50; LC50 at 24 h [3]: 481 µM |
| C/C(=N/NC(N)=S)c1ccccc1Cl | 199 |  |
| NC(=S)N/N=C\C=C\c1ccccc1 | 76.3 |  |
| NC(=S)N/N=C\c1ccccc1O | 170 |  |
| NC(=S)N/N=C\c1ccccc1Cl | 220 |  |
| NC(=S)N/N=C\c1ccccc1 [BENZALDEHYDE-THIOSEMICARBAZONE] | 444 |  |
| NC(=S)N/N=C\c1cc(Cl)ccc1O | 45.6 |  |
| C/C(=N/NC(N)=S)c1ccccc1 [ACETOPHENONE-THIOSEMICARBAZONE] | 212 |  |
| NC(=S)N/N=C\c1cccc(Br)c1 | 136 |  |
| Cc1ccccc1/C=N\NC(N)=S | 222 |  |
| C/C(=N/NC(N)=S)c1cccc(Br)c1 | 70.4 |  |
| C/C(=N/NC(N)=S)c1ccc(Br)cc1 | 26.9 |  |
| COc1ccc(/C(C)=N\NC(N)=S)cc1OC |  | IC50 [1]: Not Active |
| C/C(=N/N=C(\N)S)C12CC3CC(CC(C3)C1)C2 | 8.38 | Ratio LC50/IC50 [2]: 14.2; LC50 at 24 h [3]: 119 µM |
| COc1cc(/C(C)=N\NC(N)=S)cc(OC)c1OC |  | IC50 [1]: Not Active |
| C/C(=N/NC(=S)Nc1ccccc1)c1ccc(Br)cc1 | 5.19 | Ratio LC50/IC50 [2]: 25.9; LC50 at 24 h [3]: 134 µM |
| NC(=S)N/N=C\CCc1ccccc1 | 260 |  |
| NC(=S)N/N=C\c1cccc(Cl)c1 | 164 |  |
| COc1ccc(/C=N\NC(N)=S)cc1 | 259 |  |
| NC(=S)N/N=C\c1ccc(Cl)cc1 | 82.6 |  |
